Measured values: publication PMC11850817 (Scientific Reports, 2025)

Assays:
[1] = system: AsPC-1 cells; assay: Cell cycle test, RNase/PI flow cytometry; assay type: cell-based, human; conditions: AsPC-1, 3, 10, 30, 50 µM, 48 h
[2] = molecular target: CDK2/cyclin A (Homo sapiens, UniProt P24941); assay: Radiometric kinase assay; assay type: biochemical
[3] = system: MCF-7; assay: MTT antiproliferative assay, MCF-7; assay type: cell-based, human; conditions: Homo sapiens, MCF7, 72 h, read-out: IC50 MCF-7
[4] = system: AsPC-1; assay: MTT antiproliferative assay, AsPC-1; assay type: cell-based, human; conditions: Homo sapiens, ASPC1, 72 h, read-out: IC50 AsPC-1
[5] = molecular target: KIT (c-Kit) (Homo sapiens, UniProt P10721); assay: Radiometric kinase assay; assay type: biochemical; conditions: read-out: Kinase inhibition (%) KIT (c-Kit)
[6] = molecular target: FGFR1 (Homo sapiens, UniProt P11362); assay: Radiometric kinase assay; assay type: biochemical; conditions: read-out: Kinase inhibition (%) FGFR1
[7] = molecular target: T1, AXL (Homo sapiens, UniProt P30530); assay: Radiometric kinase assay; assay type: biochemical; conditions: read-out: Kinase inhibition (%) AXL
T1 sequence (P30530 26-894): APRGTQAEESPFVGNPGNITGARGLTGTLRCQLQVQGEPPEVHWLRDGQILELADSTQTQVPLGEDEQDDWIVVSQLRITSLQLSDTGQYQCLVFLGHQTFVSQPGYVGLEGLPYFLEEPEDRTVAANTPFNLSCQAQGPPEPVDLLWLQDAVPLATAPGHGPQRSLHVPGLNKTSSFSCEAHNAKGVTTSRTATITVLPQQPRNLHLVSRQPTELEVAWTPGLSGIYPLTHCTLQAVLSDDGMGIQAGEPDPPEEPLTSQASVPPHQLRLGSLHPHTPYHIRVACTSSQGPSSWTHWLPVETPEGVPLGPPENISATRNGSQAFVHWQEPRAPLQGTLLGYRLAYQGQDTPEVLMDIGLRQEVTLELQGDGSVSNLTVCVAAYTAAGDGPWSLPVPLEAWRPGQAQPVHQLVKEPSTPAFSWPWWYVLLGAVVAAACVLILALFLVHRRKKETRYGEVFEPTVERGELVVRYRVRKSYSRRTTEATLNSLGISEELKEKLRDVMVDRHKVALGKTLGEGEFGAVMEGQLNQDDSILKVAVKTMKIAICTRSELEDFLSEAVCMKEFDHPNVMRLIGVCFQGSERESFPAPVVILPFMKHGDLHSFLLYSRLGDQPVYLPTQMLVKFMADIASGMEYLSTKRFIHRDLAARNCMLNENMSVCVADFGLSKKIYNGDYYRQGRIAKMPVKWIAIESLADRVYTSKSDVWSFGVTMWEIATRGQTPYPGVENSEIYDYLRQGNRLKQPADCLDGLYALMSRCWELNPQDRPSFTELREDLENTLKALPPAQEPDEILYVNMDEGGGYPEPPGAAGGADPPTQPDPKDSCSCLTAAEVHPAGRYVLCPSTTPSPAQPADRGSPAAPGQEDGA

[8] = molecular target: AURKA (Homo sapiens, UniProt O14965); assay: Radiometric kinase assay; assay type: biochemical; conditions: read-out: Kinase inhibition (%) AURKA
Chain of AURKA (O14965 whole entry): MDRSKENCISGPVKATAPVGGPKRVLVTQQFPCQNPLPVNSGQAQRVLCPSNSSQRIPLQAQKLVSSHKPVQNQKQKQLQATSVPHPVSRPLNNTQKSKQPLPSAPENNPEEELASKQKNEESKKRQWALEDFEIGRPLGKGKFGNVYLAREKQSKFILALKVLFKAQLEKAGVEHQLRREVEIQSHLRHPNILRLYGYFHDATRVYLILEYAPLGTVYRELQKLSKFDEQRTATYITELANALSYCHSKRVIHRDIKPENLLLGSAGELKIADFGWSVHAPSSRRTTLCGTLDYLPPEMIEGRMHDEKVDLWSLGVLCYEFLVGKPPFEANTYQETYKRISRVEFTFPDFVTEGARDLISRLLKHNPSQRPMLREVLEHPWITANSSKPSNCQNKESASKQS

[9] = molecular target: EGFR (Homo sapiens, UniProt P00533); assay: Radiometric kinase assay; assay type: biochemical; conditions: read-out: Kinase inhibition (%) EGFR
[10] = molecular target: ABL1 (Homo sapiens, UniProt P00519); assay: Radiometric kinase assay; assay type: biochemical; conditions: read-out: Kinase inhibition (%) ABL1
[11] = molecular target: ROS1 (Homo sapiens, UniProt P08922); assay: Radiometric kinase assay; assay type: biochemical; conditions: read-out: Kinase inhibition (%) ROS1
[12] = molecular target: PIK3CA (Homo sapiens, UniProt P42336); assay: Radiometric kinase assay; assay type: biochemical; conditions: read-out: Kinase inhibition (%) PIK3CA
[13] = molecular target: MAP2K1 (Homo sapiens, UniProt Q02750); assay: Radiometric kinase assay; assay type: biochemical; conditions: read-out: Kinase inhibition (%) MAP2K1
Chain of MAP2K1 (Q02750 whole entry): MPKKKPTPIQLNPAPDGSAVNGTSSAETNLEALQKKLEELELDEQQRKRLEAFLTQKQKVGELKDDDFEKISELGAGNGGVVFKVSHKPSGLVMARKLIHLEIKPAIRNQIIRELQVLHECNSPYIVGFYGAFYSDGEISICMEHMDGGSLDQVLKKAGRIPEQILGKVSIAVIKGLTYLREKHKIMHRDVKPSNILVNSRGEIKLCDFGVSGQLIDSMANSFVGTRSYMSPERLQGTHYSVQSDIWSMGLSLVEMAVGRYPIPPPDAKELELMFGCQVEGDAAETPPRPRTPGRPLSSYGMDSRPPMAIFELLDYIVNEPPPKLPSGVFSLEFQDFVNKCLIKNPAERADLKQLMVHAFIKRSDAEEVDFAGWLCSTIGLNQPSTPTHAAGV

[14] = molecular target: CDK6/cyclinD3 (Homo sapiens, UniProt Q00534); assay: Radiometric kinase assay; assay type: biochemical; conditions: read-out: Kinase inhibition (%) CDK6/cyclinD3
[15] = molecular target: AKT1 (Homo sapiens, UniProt P31749); assay: Radiometric kinase assay; assay type: biochemical; conditions: read-out: Kinase inhibition (%) AKT1
[16] = molecular target: BRAF (Homo sapiens, UniProt P15056); assay: Radiometric kinase assay; assay type: biochemical; conditions: read-out: Kinase inhibition (%) BRAF
[17] = molecular target: PDGFRB (PDGFRβ) (Homo sapiens, UniProt P09619); assay: Radiometric kinase assay; assay type: biochemical; conditions: read-out: Kinase inhibition (%) PDGFRB (PDGFRβ)
Chain of PDGFRB (PDGFRβ) (P09619 33-1106): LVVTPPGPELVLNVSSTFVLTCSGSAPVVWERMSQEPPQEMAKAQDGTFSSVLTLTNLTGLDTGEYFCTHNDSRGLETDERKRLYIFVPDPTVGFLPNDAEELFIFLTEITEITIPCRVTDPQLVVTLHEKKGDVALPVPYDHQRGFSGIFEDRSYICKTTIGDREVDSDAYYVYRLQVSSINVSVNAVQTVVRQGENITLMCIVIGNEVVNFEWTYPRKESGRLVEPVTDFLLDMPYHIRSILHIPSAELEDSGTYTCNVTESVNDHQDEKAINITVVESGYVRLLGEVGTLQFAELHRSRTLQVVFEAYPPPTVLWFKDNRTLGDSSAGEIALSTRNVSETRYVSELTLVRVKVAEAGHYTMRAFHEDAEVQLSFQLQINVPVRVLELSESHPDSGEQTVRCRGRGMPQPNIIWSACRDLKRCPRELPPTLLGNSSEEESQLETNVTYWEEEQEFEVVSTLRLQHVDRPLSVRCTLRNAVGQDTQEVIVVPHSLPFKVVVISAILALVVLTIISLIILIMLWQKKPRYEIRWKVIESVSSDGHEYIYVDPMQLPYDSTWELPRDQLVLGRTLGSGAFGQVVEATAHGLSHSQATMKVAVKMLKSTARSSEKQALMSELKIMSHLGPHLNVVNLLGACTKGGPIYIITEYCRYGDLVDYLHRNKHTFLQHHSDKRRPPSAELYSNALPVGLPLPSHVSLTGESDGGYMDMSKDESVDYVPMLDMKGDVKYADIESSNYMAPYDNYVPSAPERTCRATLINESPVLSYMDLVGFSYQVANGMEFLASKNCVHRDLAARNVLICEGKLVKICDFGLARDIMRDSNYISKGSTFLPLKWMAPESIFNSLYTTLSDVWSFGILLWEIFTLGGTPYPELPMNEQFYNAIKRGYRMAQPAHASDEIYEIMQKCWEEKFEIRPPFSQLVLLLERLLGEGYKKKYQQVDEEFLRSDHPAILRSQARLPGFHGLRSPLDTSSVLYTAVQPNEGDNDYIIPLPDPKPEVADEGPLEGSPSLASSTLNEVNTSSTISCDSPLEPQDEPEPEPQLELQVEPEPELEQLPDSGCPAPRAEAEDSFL

[18] = system: NIH3T3; assay: MTT assay, NIH3T3 non-cancer cell line; assay type: cell-based; conditions: Mus musculus, NIH3T3, 72 h, read-out: IC50 NIH3T3
[19] = molecular target: CHEK1 (Homo sapiens, UniProt O14757); assay: Radiometric kinase assay; assay type: biochemical; conditions: read-out: Kinase inhibition (%) CHEK1
[20] = molecular target: KDR (VEGFR2) (Homo sapiens, UniProt P35968); assay: Radiometric kinase assay; assay type: biochemical; conditions: read-out: Kinase inhibition (%) KDR (VEGFR2)
[21] = system: Mia-Paca-2; assay: MTT antiproliferative assay, Mia-Paca-2; assay type: cell-based, human; conditions: Homo sapiens, MIA PaCa-2, 72 h, read-out: IC50 Mia-Paca-2
[22] = molecular target: NTRK1 (TrkA) (Homo sapiens, UniProt P04629); assay: Radiometric kinase assay; assay type: biochemical; conditions: read-out: Kinase inhibition (%) NTRK1 (TrkA)
Chain of NTRK1 (TrkA) (P04629 33-796): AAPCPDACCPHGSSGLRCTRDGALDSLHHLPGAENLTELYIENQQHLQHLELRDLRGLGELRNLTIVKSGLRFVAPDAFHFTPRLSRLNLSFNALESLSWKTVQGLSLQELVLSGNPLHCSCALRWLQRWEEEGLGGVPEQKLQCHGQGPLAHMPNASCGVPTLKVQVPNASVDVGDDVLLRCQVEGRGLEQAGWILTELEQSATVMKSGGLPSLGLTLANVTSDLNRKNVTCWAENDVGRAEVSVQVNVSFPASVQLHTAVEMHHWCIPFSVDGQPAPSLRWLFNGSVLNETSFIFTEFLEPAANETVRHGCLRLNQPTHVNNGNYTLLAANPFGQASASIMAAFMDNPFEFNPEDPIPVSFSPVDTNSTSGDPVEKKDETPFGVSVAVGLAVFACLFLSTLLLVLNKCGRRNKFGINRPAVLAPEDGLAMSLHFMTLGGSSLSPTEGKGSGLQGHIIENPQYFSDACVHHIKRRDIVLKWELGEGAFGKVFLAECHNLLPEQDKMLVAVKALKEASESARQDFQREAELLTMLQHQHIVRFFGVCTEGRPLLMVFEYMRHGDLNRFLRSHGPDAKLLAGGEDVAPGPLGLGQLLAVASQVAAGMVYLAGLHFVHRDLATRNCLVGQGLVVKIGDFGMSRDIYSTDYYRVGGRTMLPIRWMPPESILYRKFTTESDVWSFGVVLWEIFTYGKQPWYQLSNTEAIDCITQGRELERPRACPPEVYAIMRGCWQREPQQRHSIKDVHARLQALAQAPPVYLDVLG

[23] = system: EBC-1; assay: MTT antiproliferative assay, EBC-1; assay type: cell-based, human; conditions: Homo sapiens, EBC-1, 72 h, read-out: IC50 EBC-1
[24] = molecular target: ALK (Homo sapiens, UniProt Q9UM73); assay: Radiometric kinase assay; assay type: biochemical; conditions: read-out: Kinase inhibition (%) ALK
[25] = system: AsPC-1 cells; assay: Apoptosis by Hoechst 33,258 staining; assay type: cell-based, human; conditions: AsPC-1, 10 and 30 µM, 48 h
[26] = molecular target: NTRK3 (TrkC) (Homo sapiens, UniProt Q16288); assay: Radiometric kinase assay; assay type: biochemical; conditions: read-out: Kinase inhibition (%) NTRK3 (TrkC)
[27] = molecular target: AKT2 (Homo sapiens, UniProt P31751); assay: Radiometric kinase assay; assay type: biochemical; conditions: read-out: Kinase inhibition (%) AKT2
[28] = molecular target: PDGFRA (PDGFRα) (Homo sapiens, UniProt P16234); assay: Radiometric kinase assay; assay type: biochemical
Chain of PDGFRA (PDGFRα) (P16234 24-1089): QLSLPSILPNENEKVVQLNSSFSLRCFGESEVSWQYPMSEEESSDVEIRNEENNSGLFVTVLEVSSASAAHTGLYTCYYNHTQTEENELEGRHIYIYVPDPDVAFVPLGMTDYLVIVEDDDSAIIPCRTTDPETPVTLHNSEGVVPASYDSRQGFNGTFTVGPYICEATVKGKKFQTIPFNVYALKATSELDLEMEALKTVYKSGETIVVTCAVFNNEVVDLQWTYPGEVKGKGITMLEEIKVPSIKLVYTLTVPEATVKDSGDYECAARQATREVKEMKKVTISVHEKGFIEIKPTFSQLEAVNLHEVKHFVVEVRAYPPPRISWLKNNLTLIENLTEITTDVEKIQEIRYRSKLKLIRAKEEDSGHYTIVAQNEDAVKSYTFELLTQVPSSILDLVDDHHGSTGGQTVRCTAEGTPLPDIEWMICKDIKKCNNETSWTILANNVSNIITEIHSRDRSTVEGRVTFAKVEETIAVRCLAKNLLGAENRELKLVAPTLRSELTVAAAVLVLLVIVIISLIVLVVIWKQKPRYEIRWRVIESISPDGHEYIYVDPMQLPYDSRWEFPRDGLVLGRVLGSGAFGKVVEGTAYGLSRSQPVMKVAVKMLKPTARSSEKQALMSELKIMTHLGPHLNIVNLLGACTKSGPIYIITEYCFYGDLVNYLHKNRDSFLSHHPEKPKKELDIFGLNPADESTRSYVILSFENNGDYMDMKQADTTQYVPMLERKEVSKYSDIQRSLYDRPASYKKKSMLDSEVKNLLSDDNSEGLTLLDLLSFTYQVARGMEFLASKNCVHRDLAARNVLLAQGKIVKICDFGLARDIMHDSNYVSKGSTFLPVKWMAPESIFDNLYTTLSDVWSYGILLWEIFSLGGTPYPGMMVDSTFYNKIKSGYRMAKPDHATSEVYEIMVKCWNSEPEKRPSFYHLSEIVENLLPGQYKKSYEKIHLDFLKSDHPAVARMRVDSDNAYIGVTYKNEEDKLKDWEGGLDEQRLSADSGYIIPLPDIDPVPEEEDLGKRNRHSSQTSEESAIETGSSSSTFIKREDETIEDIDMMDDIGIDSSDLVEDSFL

[29] = molecular target: ERBB2 (Her-2) (Homo sapiens, UniProt P04626); assay: Radiometric kinase assay; assay type: biochemical; conditions: read-out: Kinase inhibition (%) ERBB2 (Her-2)
[30] = molecular target: WEE1 (Homo sapiens, UniProt P30291); assay: Radiometric kinase assay; assay type: biochemical; conditions: read-out: Kinase inhibition (%) WEE1
[31] = molecular target: FLT4 (VEGFR3) (Homo sapiens, UniProt P35916); assay: Radiometric kinase assay; assay type: biochemical
Chain of FLT4 (VEGFR3) (P35916 25-1363): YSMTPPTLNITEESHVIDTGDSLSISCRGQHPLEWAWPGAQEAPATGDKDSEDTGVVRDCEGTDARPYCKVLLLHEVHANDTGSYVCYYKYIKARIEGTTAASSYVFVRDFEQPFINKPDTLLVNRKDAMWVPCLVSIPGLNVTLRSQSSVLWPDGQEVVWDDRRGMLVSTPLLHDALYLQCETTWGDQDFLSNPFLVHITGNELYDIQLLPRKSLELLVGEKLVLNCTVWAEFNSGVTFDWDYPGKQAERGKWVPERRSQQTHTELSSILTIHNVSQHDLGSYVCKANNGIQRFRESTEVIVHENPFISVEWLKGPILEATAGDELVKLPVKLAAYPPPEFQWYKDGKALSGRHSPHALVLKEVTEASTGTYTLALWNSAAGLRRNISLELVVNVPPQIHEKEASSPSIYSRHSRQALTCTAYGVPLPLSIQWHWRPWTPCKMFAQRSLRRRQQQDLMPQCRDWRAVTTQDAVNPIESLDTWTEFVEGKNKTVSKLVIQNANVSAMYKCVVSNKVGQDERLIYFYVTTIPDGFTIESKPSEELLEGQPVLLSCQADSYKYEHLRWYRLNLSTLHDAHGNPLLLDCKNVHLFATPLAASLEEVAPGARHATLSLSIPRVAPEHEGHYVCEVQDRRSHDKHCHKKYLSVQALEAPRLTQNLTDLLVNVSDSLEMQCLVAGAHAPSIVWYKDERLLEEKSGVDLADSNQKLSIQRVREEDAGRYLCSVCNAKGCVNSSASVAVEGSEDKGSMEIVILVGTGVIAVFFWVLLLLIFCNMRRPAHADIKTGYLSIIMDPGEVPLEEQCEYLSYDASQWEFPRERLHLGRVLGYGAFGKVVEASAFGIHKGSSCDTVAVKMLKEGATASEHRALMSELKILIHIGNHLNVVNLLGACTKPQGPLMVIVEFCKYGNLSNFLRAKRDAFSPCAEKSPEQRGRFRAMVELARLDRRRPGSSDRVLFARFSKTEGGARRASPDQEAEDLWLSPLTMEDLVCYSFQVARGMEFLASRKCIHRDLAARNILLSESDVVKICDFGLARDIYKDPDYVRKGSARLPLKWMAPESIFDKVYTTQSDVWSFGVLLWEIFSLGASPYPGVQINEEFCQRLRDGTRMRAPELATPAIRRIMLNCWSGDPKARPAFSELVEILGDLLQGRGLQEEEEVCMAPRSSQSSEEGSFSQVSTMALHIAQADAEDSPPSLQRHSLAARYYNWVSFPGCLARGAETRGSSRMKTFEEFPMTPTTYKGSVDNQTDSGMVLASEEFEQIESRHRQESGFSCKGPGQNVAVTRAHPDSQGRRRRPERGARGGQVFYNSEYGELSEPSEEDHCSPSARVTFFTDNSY

[32] = molecular target: FLT1 (VEGFR1) (Homo sapiens, UniProt P17948); assay: Radiometric kinase assay; assay type: biochemical; conditions: read-out: Kinase inhibition (%) FLT1 (VEGFR1)
[33] = molecular target: IGF1R (Homo sapiens, UniProt P08069); assay: Radiometric kinase assay; assay type: biochemical; conditions: read-out: Kinase inhibition (%) IGF1R
[34] = system: HT-29; assay: MTT antiproliferative assay, HT-29; assay type: cell-based, human; conditions: Homo sapiens, HT-29, 72 h, read-out: IC50 HT-29

- IC50 [2]: 1.67 ± 0.115 µM
- inhibition at 10 µM ([2]; read-out: Kinase inhibition (%) CDK2/cyclin A): 73%
- IC50 [3]: > 100 µM
- IC50 [4]: 23.5 ± 5.8 µM
- inhibition at 10 µM [5]: 1%
- inhibition at 10 µM [6]: 14%
- inhibition at 10 µM [7]: 14%
- inhibition at 10 µM [8]: -3%
- inhibition at 10 µM [9]: -5%
- inhibition at 10 µM [10]: 7%
- inhibition at 10 µM [11]: -6%
- inhibition at 10 µM [12]: 14%
- inhibition at 10 µM [13]: 9%
- inhibition at 10 µM [14]: 9%
- inhibition at 10 µM [15]: 19%
- inhibition at 10 µM [16]: 3%
- inhibition at 10 µM [17]: 16%
- inhibition at 10 µM [19]: -20%
- inhibition at 10 µM [20]: 20%
- IC50 [21]: > 100 µM
- inhibition at 10 µM [22]: 43%
- inhibition at 10 µM [24]: 16%
- inhibition at 10 µM [26]: 40%
- inhibition at 10 µM [27]: 25%
- IC50 [28]: 0.629 ± 0.087 µM
- inhibition at 10 µM ([28]; read-out: Kinase inhibition (%) PDGFRA (PDGFRα)): 71%
- inhibition at 10 µM [29]: 3%
- inhibition at 10 µM [30]: 6%
- IC50 [31]: 0.554 ± 0.002 µM
- inhibition at 10 µM ([31]; read-out: Kinase inhibition (%) FLT4 (VEGFR3)): 87%
- inhibition at 10 µM [32]: -16%
- inhibition at 10 µM [33]: -3%
- IC50 [34]: 21.9 ± 3.9 µM
Structure (SMILES): O=C1C=C(Nc2ccc(OCc3cn(Cc4ccccc4)nn3)cc2)C(=O)c2ccccc21 [Compound 4a, 2-((4-((1-Benzyl-1H-1,2,3-triazol-4-yl)methoxy)phenyl)amino)naphthalene-1,4-dione]
- Effect on cell cycle distribution (S and G2/M phases) [1]: dose-dependently increased the number of cells in the S phase and simultaneously reduced the cells in G2/M phase
- IC50 [18]: 85.5 ± 19.6 µM
- IC50 [23]: 5.1 ± 1.2 µM
- Apoptosis induction (nuclear morphology) [25]: characteristic features of apoptosis including densely packed chromatin within the nucleus as well as nuclear fragmentation
